In paper PMC6934184, “Selective DNA-PKcs inhibition extends the therapeutic index of localized radiotherapy and chemotherapy” (The Journal of Clinical Investigation, 2019):

Molecular target: T1, PRKCH (PKC eta) (Homo sapiens, UniProt P24723)
T1 construct: purchased Thermo Fisher Scientific (Life Technologies) SelectScreen
Assay: SelectScreen Z'LYTE
Type: biochemical
In short: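 SelectScreen broad panel; activity (Z'LYTE, Adapta) plus binding formats. ATP: Km app for CSF1R Z'LYTE; 10 for CAMK1 Adapta. Readout = % per kinase.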

T1 sequence (P24723 whole entry): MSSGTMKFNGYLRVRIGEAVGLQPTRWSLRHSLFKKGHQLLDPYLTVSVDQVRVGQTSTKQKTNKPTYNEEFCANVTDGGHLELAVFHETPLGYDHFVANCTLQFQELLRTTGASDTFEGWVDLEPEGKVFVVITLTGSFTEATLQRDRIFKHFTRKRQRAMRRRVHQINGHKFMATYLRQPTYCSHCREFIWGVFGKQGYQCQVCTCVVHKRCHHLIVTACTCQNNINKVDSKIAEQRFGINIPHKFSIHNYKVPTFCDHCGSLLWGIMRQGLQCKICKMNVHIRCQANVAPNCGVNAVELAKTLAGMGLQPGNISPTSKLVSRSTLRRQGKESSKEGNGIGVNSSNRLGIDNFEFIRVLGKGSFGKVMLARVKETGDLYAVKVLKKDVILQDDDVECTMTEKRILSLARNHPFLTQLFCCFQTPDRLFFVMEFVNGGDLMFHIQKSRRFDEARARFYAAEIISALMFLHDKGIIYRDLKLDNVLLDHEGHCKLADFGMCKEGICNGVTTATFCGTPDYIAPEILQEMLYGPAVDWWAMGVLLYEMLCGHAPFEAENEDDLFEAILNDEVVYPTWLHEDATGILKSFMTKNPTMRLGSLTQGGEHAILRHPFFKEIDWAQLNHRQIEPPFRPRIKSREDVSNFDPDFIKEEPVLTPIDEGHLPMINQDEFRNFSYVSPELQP

Which inhibition at 1 µM does the source give for `CN(C(=O)CN1CCOCC1)c1ccc2sc3c(-c4cccc5c(=O)cc(N6CC7CCC(C6)O7)oc45)cccc3c2c1` [NU5455] here?
The inhibition at 1 µM was -4.6%.
